In ChEMBL document CHEMBL5465560, “Selectivity Literature for EUbOPEN Chemogenomic Library” (2024):
Blank lines part the entries; values can stand above or below the molecule they belong to.

Assays:
[1] = biological target: Tyrosine-protein kinase JAK1 (Homo sapiens, UniProt P23458); details: at 10 µM
[2] = biological target: 5'-AMP-activated protein kinase catalytic subunit alpha-2 (Homo sapiens) (UniProt P54646); test: Selectivity interaction (KinomeScan (DiscoverX)) EUB0001079a PRKAA2; details: at 1 µM
5'-AMP-activated protein kinase catalytic subunit alpha-2 (Homo sapiens), sequence (P54646 whole entry, looked up): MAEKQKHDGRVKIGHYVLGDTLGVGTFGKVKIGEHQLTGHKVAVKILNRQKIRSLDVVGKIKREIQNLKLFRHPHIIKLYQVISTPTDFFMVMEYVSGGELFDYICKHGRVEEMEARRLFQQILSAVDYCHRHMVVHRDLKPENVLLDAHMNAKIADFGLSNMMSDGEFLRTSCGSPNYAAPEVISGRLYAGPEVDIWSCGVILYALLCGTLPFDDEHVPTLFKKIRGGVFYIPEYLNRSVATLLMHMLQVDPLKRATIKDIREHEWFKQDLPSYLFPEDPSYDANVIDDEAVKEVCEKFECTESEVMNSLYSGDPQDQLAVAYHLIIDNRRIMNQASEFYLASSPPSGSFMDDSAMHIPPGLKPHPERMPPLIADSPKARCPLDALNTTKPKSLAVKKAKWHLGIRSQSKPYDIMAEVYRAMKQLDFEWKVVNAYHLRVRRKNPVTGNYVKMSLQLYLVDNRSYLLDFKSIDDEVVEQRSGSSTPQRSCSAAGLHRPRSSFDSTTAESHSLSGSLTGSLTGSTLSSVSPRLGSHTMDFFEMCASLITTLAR

[3] = biological target: G protein-coupled receptor kinase 5 (Homo sapiens, UniProt P34947); test: Selectivity interaction (Kinase panel (DSF assay)) EUB0001558a GRK5
[4] = biological target: MAP kinase-interacting serine/threonine-protein kinase 2 (Homo sapiens, UniProt Q9HBH9); test: Selectivity interaction (KinomeScan (DiscoverX)) EUB0000595a MKNK2; details: at 10 µM
[5] = biological target: Histone-lysine N-methyltransferase ASH1L (Homo sapiens) (UniProt Q9NR48); details: at 1 µM
[6] = biological target: Mitogen-activated protein kinase kinase kinase 9 (Homo sapiens) (UniProt P80192); details: at 10 µM
Mitogen-activated protein kinase kinase kinase 9 (Homo sapiens), sequence (P80192 whole entry, looked up): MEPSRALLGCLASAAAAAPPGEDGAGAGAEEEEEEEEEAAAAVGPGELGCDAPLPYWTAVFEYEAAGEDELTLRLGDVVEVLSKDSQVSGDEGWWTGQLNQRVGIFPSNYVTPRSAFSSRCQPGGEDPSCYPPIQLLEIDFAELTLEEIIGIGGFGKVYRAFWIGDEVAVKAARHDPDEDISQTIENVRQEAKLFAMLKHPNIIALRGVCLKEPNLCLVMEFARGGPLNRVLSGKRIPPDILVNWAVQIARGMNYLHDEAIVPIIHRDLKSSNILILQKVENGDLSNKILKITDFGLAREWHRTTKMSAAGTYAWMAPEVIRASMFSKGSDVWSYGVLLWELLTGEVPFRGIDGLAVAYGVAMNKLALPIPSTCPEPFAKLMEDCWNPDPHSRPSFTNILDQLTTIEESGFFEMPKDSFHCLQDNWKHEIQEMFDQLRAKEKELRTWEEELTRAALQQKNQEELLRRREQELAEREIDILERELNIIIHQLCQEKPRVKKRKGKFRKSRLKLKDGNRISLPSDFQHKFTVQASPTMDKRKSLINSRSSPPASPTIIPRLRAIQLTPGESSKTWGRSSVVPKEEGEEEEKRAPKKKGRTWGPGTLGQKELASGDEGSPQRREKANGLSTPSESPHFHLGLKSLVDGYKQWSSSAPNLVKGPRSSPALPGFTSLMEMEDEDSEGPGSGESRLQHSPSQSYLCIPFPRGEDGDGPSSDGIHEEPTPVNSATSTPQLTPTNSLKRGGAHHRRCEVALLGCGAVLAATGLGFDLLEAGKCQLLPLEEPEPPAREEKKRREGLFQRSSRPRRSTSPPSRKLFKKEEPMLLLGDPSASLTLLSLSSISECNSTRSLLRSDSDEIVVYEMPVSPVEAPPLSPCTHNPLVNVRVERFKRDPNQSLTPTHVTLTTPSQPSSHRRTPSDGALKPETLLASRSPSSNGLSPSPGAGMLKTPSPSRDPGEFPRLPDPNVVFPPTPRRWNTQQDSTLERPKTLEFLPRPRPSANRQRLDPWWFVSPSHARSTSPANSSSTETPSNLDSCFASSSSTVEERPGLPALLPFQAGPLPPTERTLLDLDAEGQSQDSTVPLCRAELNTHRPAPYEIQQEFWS

[7] = biological target: T1, Protein kinase C epsilon type (Homo sapiens) (UniProt Q02156); details: at 10 µM
T1 sequence (whole entry): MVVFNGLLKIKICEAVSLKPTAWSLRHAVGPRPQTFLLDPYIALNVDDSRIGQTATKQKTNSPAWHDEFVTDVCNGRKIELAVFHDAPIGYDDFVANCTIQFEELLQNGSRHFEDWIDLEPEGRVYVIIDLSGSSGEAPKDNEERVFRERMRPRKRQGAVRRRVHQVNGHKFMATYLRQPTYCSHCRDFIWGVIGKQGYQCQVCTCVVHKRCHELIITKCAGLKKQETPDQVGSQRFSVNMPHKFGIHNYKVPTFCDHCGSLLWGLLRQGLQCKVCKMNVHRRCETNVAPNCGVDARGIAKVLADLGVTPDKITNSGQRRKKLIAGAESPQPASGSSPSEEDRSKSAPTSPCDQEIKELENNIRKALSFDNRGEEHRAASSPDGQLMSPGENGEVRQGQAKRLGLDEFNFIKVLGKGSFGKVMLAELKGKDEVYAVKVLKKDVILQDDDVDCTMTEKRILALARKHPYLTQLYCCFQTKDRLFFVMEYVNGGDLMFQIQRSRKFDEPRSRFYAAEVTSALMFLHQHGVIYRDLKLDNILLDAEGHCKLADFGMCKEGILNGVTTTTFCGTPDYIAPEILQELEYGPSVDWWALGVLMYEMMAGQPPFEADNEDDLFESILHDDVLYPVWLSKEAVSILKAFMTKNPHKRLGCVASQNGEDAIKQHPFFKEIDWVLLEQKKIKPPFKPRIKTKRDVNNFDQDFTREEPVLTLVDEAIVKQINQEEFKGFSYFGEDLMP

[8] = biological target: T2, Inhibitor of nuclear factor kappa-B kinase subunit beta (Homo sapiens) (UniProt O14920); test: Selectivity interaction (ActivX KiNativ screen (kinase selectivity in THP-1 cell lysates)) EUB0000639a IKBKB; assay type: subcellular; details: lysate
T2 sequence (whole entry): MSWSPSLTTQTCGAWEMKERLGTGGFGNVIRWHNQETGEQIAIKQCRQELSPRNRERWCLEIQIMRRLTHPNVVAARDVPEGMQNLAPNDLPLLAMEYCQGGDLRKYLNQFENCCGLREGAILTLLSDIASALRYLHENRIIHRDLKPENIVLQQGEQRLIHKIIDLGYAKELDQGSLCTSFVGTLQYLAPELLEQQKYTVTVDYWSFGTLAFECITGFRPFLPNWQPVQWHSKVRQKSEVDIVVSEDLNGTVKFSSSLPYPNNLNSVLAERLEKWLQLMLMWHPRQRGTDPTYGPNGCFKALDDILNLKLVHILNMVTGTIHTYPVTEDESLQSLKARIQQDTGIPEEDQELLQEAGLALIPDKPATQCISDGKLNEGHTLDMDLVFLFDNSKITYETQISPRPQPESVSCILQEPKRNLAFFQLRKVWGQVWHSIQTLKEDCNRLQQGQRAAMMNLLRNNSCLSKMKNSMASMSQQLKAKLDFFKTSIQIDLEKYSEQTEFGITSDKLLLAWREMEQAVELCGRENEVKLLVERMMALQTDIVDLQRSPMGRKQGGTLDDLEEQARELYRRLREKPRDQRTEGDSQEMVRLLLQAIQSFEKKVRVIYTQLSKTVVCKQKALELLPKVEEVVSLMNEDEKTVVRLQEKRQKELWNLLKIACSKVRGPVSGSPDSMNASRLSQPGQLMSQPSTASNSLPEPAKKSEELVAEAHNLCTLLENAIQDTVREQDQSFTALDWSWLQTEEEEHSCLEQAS

[9] = biological target: Interferon-induced, double-stranded RNA-activated protein kinase (Homo sapiens) (UniProt P19525); test: Selectivity interaction (ActivX KiNativ screen (kinase selectivity in THP-1 cell lysates)) EUB0000639a EIF2AK2; assay type: subcellular; details: lysate, at 5 µM
Interferon-induced, double-stranded RNA-activated protein kinase (Homo sapiens), sequence (P19525 whole entry): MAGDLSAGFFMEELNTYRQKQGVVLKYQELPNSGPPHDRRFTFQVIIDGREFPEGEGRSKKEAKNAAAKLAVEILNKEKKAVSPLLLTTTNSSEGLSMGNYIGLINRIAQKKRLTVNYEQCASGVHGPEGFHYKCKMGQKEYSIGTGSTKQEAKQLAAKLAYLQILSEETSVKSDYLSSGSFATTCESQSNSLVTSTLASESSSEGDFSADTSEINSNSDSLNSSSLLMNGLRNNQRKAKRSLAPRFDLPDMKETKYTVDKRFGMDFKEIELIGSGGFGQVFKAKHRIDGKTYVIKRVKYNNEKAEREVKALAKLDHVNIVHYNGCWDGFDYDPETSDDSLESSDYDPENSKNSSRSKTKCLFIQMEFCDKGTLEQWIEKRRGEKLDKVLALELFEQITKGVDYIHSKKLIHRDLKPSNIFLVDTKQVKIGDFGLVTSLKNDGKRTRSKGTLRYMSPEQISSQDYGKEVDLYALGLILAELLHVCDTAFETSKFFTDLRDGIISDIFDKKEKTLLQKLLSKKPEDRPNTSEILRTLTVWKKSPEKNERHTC

[10] = biological target: Calcium/calmodulin-dependent protein kinase type 1D (Homo sapiens) (UniProt Q8IU85); test: Selectivity interaction (ProQinase) EUB0000171b CAMK1D
Calcium/calmodulin-dependent protein kinase type 1D (Homo sapiens), sequence (Q8IU85 whole entry, looked up): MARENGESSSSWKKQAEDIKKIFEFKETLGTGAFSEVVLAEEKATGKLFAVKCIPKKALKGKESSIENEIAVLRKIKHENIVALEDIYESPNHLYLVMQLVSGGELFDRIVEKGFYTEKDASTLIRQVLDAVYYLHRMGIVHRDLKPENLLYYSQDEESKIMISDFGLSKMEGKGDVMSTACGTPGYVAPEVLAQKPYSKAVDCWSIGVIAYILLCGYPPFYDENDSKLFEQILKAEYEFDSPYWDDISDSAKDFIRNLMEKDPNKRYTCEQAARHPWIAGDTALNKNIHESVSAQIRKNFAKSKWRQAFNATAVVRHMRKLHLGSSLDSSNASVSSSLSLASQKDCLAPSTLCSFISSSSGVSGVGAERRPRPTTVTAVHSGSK

[11] = biological target: Calcium/calmodulin-dependent protein kinase type II subunit beta (Homo sapiens) (UniProt Q13554); test: Selectivity interaction (KinomeScan (DiscoverX)) EUB0001049a CAMK2B; details: at 1 µM
OATP1B1 (SLCO1B1) = OATP1B1 (SLCO1B1) (Homo sapiens, UniProt Q9Y6L6); test: Selectivity interaction (Panel of kinases, GPCRs, ion channels and transporters (enzymatic assay)) EUB0000223bCl SLCO1B1; details: not told
[12] = biological target: Vascular endothelial growth factor receptor 2 (Homo sapiens, UniProt P35968); test: Selectivity interaction (KinomeScan (DiscoverX)) EUB0000666a KDR; details: at 10 µM
Vascular endothelial growth factor receptor 2, sequence (P35968 whole entry): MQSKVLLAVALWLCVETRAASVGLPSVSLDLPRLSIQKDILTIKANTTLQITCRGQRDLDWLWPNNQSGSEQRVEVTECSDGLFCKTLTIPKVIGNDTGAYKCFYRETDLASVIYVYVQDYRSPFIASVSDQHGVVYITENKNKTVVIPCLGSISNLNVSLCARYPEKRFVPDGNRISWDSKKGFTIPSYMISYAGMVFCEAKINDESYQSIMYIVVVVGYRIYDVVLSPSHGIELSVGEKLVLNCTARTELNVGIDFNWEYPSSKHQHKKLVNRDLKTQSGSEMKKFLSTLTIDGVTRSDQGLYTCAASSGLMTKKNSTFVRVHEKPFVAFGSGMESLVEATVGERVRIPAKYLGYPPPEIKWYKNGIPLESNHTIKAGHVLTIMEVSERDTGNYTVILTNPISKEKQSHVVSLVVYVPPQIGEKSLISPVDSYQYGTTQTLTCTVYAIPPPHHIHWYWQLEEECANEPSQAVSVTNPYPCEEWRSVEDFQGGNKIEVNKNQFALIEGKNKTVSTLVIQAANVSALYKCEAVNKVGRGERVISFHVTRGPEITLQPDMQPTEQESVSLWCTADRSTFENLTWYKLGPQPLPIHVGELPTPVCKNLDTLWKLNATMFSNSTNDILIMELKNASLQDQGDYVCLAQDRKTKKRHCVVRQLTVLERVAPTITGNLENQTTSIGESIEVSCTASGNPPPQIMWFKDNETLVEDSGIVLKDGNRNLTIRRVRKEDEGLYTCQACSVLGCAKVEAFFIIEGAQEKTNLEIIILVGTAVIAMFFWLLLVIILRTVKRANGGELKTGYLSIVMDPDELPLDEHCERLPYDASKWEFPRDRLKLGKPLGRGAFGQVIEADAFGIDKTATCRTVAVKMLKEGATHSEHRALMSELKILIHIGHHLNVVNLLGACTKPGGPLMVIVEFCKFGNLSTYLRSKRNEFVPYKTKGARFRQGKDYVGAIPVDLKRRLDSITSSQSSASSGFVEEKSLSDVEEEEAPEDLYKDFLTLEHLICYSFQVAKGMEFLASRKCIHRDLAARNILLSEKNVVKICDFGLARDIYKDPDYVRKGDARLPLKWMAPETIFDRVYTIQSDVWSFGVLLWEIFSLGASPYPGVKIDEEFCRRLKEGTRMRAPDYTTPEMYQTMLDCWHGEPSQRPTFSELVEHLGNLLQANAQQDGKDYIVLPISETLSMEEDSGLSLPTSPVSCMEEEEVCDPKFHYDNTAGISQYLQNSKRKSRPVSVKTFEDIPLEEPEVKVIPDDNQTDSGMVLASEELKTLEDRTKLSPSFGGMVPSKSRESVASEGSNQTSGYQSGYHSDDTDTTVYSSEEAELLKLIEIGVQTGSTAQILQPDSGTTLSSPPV

Tyrosine-protein kinase JAK1, sequence (P23458 whole entry): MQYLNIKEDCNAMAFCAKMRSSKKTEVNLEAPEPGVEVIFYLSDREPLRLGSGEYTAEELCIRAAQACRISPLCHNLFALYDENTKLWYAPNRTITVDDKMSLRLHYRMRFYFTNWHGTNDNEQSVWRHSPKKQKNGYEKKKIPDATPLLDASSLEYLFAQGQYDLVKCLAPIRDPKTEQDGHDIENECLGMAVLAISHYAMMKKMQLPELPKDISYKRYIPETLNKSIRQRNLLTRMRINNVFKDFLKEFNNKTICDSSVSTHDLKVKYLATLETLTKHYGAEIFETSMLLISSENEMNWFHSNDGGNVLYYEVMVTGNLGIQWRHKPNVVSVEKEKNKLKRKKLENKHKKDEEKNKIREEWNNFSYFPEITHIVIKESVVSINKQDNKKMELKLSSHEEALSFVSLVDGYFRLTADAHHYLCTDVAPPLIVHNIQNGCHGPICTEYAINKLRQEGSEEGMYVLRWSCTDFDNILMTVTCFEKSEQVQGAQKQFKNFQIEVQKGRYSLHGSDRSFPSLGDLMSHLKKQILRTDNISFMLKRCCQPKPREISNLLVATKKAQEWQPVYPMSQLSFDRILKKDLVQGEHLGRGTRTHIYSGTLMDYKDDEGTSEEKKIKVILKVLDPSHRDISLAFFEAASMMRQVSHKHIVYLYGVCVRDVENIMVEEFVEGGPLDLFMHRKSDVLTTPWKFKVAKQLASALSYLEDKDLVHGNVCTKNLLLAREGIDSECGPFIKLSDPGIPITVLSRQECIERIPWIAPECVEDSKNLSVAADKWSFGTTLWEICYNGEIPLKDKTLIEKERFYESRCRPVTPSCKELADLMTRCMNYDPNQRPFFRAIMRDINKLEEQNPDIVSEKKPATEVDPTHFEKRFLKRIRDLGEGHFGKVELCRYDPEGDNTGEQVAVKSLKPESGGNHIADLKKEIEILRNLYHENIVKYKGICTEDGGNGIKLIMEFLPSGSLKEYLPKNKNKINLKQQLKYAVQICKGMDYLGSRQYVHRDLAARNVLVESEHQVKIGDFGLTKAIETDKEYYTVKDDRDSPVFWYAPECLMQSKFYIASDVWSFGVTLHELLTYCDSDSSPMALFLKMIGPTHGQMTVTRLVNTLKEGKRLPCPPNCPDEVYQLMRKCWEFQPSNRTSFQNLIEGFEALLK

% of control [1]: 100%
Compound: CCN(CC)CCCCNc1ncc2cc(-c3cc(OC)cc(OC)c3)c(NC(=O)NC(C)(C)C)nc2n1

Compound: Nc1cnc(N2CCc3cc(S(=O)(=O)Nc4c(F)cc(Cl)cc4F)cc(N4CCCC4=O)c32)nc1 [TP-020n]
% of control [2]: 100%

Compound: CC(C)(O)[C@H](F)CN1Cc2cc(NC(=O)c3cnn4cccnc34)c(N3CCOCC3)cc2C1=O
dTM [3]: 0.2 K

Compound: COCC(=O)NC/C=C/c1ccc2ncnc(Nc3ccc(Oc4ccc(C)nc4)c(C)c3)c2c1 [CP-724714]
% of control [4]: 1.4%

% activity [5]: > 90%
Compound: CNCCN1CCC(c2cc(CN(C)C(=O)c3cccc(Oc4ccccc4)c3)ccn2)CC1

Compound: Cc1cc([C@@H](C)Nc2ccccc2C(=O)O)c2nc(N3CCOCC3)cc(=O)n2c1 [AZD-6482]
% of control [6]: 91% | % of control [7]: 100%

% of inhibition ([8]; at 0.01 µM): -9.1% | % of inhibition ([8]; at 0.04 µM): 4.5% | % of inhibition ([8]; at 0.2 µM): -13.8% | % of inhibition ([8]; at 1 µM): 4.1% | % of inhibition ([8]; at 5 µM): -6.8% | % of inhibition [9]: 0.6%
Compound: CC[C@@H]1[C@H](F)C(=O)N[C@@H]1COc1nccc2cc(C(N)=O)c(OC)cc12 [ZIMLOVISERTIB]

% of control ([10]; at 1 µM): 90% | % of control ([10]; at 5 µM): 75%
Compound: C=CC(=O)Nc1cccc(C(=O)Nc2ccc(Nc3cc(-c4[nH]c(SC)nc4C)ccn3)cc2)c1

Compound: COc1cc(Nc2nc(C)cc(-c3cnn4nc(OC)ccc34)n2)cc(C(F)(F)F)c1
% of control [11]: 93%

Compound: COc1cc(C(=O)N2CC[C@@H](O)[C@@H](N)C2)cc2nc(-c3cc4ccccc4n3CC3CC3)n(C)c12
XC50 (OATP1B1 (SLCO1B1)): 7.94 µM

Compound: O=C(NOC[C@H](O)CO)c1ccc(F)c(F)c1Nc1ccc(I)cc1F
% of control [12]: 84%
